The text below walks through data of patent publication US11168073B2, “3,3-difluoroallylamines or salts thereof and pharmaceutical compositions comprising the same” (YUHAN CORPORATION, priority 2018, dated 2021).

Structures can show the parent of a compound that is named as a salt. Where two headings read alike, the source gives them in different places.

Type in all cases: biochemical
Experiment [1] deals with T1, recombinant human MAO-A (monoamine oxidase-A) (Homo sapiens, UniProt P21397).
T1 construct: purchased Sigma-Aldrich
T1 sequence (P21397 1-527): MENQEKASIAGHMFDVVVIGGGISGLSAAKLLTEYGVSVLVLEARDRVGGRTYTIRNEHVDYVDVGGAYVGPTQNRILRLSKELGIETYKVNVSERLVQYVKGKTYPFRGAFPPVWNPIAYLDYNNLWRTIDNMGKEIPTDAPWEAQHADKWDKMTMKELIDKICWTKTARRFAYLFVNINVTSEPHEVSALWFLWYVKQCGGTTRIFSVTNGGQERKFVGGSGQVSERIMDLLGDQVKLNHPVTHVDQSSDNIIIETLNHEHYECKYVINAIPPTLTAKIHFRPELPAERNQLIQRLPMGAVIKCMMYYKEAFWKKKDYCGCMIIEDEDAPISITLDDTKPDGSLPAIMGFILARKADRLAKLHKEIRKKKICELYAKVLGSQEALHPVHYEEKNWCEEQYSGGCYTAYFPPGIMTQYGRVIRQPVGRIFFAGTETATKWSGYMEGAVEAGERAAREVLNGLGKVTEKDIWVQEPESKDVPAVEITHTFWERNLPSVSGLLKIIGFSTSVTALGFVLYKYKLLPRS
Nature of the experiment: Activity evaluation on recombinant human MAO-A (Amplex Red/HRP-coupled assay, 0.5 mM tyramine substrate). The conditions noted are these: read-out: Inhibitory Activity (IC50, nM) MAO-A. The gist of the method: (§1)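 Using an HRP-coupled Amplex Red readout (544/590 nm, kinetic over 1–2 h), IC50 values were fitted by 4-parameter logistic model to percent decrease in signal rate against DMSO control. Compounds (1:3 dilutions, 8 points, <1% DMSO) sat 30 min at 37 °C with enzyme in pH 7.4 phosphate buffer before substrate, 200 uM Amplex Red and HRP were added.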

For experiment [2], the target named is T2, recombinant human DAO (diamine oxidase) (Homo sapiens, UniProt P19801).
T2 construct: purchased R&D systems
T2 sequence (P19801 20-751): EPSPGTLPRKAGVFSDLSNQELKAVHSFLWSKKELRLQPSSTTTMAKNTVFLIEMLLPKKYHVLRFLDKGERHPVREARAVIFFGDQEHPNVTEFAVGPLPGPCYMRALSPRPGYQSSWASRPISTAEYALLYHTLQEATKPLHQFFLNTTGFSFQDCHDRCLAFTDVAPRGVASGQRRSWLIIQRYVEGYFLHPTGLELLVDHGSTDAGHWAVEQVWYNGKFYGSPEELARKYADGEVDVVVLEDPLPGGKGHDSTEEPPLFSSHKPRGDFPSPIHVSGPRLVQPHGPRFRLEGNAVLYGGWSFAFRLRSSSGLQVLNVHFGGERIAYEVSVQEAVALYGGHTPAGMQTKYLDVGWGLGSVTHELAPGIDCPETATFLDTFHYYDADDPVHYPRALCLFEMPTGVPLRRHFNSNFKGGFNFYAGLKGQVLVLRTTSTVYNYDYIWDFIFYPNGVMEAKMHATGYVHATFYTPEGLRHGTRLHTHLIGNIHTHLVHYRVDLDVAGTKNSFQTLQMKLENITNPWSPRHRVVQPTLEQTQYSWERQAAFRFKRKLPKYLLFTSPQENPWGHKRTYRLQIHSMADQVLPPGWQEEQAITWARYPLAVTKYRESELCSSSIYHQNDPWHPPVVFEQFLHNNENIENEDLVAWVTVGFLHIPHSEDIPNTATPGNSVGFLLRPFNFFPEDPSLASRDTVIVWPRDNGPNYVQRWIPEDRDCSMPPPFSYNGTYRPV
The experiment in a line: Activity evaluation on recombinant human DAO (Amplex Red/HRP-coupled assay, 1 mM putrescine substrate). The conditions noted are these: read-out: Inhibitory Activity (IC50, nM) DAO. The gist of the method:
as §1

The target in experiment [3] is T3, recombinant human MAO-B (monoamine oxidase-B) (Homo sapiens, UniProt P27338).
T3 construct: purchased Sigma-Aldrich
T3 sequence (P27338 1-520): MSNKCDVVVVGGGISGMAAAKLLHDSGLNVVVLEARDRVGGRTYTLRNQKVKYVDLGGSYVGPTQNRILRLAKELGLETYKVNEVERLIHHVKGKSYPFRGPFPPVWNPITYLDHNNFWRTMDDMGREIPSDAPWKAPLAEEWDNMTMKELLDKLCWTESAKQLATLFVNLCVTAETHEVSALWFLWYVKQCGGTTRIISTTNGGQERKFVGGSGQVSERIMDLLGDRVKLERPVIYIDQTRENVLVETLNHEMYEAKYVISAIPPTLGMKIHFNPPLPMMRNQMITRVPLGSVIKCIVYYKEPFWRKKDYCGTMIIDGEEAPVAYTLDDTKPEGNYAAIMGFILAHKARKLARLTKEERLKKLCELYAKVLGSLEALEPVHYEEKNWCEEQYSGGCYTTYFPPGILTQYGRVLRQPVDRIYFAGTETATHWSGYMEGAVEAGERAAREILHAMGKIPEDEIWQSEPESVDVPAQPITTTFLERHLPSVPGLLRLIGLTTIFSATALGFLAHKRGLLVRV
The experiment in a line: Activity evaluation on recombinant human MAO-B (Amplex Red/HRP-coupled assay, 1 mM benzylamine substrate). The following applies: read-out: Inhibitory Activity (IC50, nM) MAO-B. The gist of the method: as §1

For experiment [4], the target named is T4, recombinant human VAP-1 (Homo sapiens, UniProt Q16853).
T4 construct: purchased R&D systems
T4 sequence (Q16853 1-763): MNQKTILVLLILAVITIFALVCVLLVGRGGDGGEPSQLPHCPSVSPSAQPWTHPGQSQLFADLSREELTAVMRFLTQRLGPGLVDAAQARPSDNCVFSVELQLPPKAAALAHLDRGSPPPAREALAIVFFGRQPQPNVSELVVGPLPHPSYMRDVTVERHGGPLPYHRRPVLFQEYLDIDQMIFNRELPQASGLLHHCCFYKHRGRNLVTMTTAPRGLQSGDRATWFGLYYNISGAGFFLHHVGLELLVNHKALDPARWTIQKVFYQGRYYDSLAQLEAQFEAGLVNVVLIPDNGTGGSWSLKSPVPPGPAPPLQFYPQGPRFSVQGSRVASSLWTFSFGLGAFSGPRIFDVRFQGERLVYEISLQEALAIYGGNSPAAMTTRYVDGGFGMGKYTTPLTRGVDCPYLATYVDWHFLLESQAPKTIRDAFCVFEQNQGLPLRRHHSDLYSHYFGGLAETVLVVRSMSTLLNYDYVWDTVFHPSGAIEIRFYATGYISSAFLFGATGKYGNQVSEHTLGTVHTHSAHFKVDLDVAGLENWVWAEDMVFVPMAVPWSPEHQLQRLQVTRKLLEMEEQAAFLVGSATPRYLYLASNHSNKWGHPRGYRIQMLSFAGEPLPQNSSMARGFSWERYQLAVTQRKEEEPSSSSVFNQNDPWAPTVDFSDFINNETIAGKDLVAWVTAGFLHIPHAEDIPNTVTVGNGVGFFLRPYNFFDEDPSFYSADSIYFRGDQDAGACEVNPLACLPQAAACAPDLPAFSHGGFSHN
Nature of the experiment: Activity evaluation on recombinant human VAP-1 (Amplex Red/HRP-coupled hydrogen peroxide assay, benzylamine substrate). The following applies: read-out: Inhibitory Activity (IC50, nM) human VAP-1. The method, boiled down: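 Hydrogen peroxide from benzylamine (1 mM) oxidation by human recombinant VAP-1 detected via HRP-coupled Amplex Red (200 uM) fluorescence, kinetic over 1–2 h. Enzyme and compound preincubated 30 min at 37 °C, pH 7.4 phosphate; 8-point dose response, signal-rate decrease versus DMSO control fitted to four-parameter logistic for IC50.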

Setting [5] is: recombinant human VAP-1, 30 min preincubation at 37° C., 1 mM benzylamine.
Setting [6] is: recombinant human VAP-1, benzylamine substrate.

For orientation: IC50 means the concentration needed to halve the response being measured. As to `NCC(Cn1ncn(-c2ccc(-c3ccc4c(c3)OCO4)nc2)c1=O)=C(F)F` [Example 42, 2-[2-(aminomethyl)-3,3-difluoro-allyl]-4-[6-(1,3-benzodioxol-5-yl)-3-pyridyl]-1,2,4-triazol-3-one Trifluoroacetate], the IC50 in experiment [1] (0.5 mM tyramine) is more than 100000 nM; in experiment [2] (1 mM putrescine), 250 nM; in experiment [3] (1 mM benzylamine), 34 nM; in experiment [4] (setting [5]) it was 0.3 nM.

Turning to `Cc1cc(-c2cnn(C(C)C)c2)cnc1-n1cnn(CC(CN)=C(F)F)c1=O` [Example 252, 2-[2-(aminomethyl)-3,3-difluoro-allyl]-4-[5-(1-isopropylpyrazol-4-yl)-3-methyl-2-pyridyl]-1,2,4-triazol-3-one Trifluoroacetate], the IC50 in experiment [1] (0.5 mM tyramine substrate) was more than 100000 nM; in experiment [2] (1 mM putrescine substrate), 17000 nM; in experiment [3] (1 mM benzylamine substrate), 35000 nM; in experiment [4] (setting [6]) it was 1 nM.

Take `CN1C(=O)CCc2cc(-c3cnc(-n4cnn(CC(CN)=C(F)F)c4=O)c(F)c3)ccc21` [Example 87, 6-[6-[1-[2-(aminomethyl)-3,3-difluoro-allyl]-5-oxo-1,2,4-triazol-4-yl]-5-fluoro-3-pyridyl]-1-methyl-3,4-dihydroquinolin-2-one Trifluoroacetate]: the IC50 was more than 100000 nM in experiment [1] (0.5 mM tyramine), 22 nM in experiment [2] (1 mM putrescine), 1100 nM in experiment [3] (1 mM benzylamine) and 0.1 nM in experiment [4] (setting [5]).

In the case of `NCC(Cn1ncn(Cc2ccc(-c3cnn(S(=O)(=O)C4CC4)c3)s2)c1=O)=C(F)F` [Example 294, 2-[2-(aminomethyl)-3,3-difluoro-allyl]-4-[[5-(1-cyclopropylsulfonylpyrazol-4-yl)-2-thienyl]methyl]-1,2,4-triazol-3-one Trifluoroacetate], the IC50 in experiment [1] (0.5 mM tyramine substrate) is more than 100000 nM; in experiment [2] (1 mM putrescine substrate), 5380 nM; in experiment [3] (1 mM benzylamine substrate) it was more than 100000 nM; in experiment [4] (setting [6]), 2.9 nM.

Take `Cc1cc(-c2ccc3c(c2)CCC(=O)N3C)cnc1-n1cnn(CC(CN)=C(F)F)c1=O` [Example 74, 6-[6-[1-[2-(aminomethyl)-3,3-difluoro-allyl]-5-oxo-1,2,4-triazol-4-yl]-5-methyl-3-pyridyl]-1-methyl-3,4-dihydroquinolin-2-one Trifluoroacetate]: the IC50 in experiment [1] (0.5 mM tyramine) was more than 100000 nM; in experiment [2] (1 mM putrescine), 6500 nM; in experiment [3] (1 mM benzylamine), 7500 nM; in experiment [4] (setting [5]) it was 0.3 nM.

As for `CCn1cc(-c2ccc(-c3ccc(Cn4cnn(CC(CN)=C(F)F)c4=O)s3)cc2)cn1` [Example 286, 2-[2-(aminomethyl)-3,3-difluoro-allyl]-4-[[5-[4-(1-ethylpyrazol-4-yl)phenyl]-2-thienyl]methyl]-1,2,4-triazol-3-one Trifluoroacetate], the IC50 worked out at 2620 nM in experiment [1] (0.5 mM tyramine substrate), 2480 nM in experiment [2] (1 mM putrescine substrate), 3230 nM in experiment [3] (1 mM benzylamine substrate) and 1.4 nM in experiment [4] (setting [6]).
